Source: ChEMBL document CHEMBL1201862, “PubChem BioAssay data set” (2004)
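1) Cells in 96-well plates. 2) Compound, 48 h, 5 concentrations. 3) Linear interpolation between surrounding doses. 4) Unreached endpoint = highest concentration. GI50 marks 50% less growth.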 Calls of active or inactive are those of the source. No stated cut-off is given here; in the data, active = GI50 up to about 1.1 µM and inactive = higher.

Columns and labels:
Assay in all cases: growth of human tumour cells (NCI), 48 h
[1] = tested on: A498
[2] = tested on: EKVX
[3] = tested on: HCC 2998
[4] = tested on: HCT-116
[5] = tested on: HL-60
[6] = tested on: HOP-92
[7] = tested on: K562
[8] = tested on: KM12
[9] = tested on: Malme-3M
[10] = tested on: NCI-H522
[11] = tested on: OVCAR-3
[12] = tested on: OVCAR-8
[13] = tested on: RPMI-8226
[14] = tested on: SF-268
[15] = tested on: SK-OV-3
[16] = tested on: U-251
[17] = tested on: UACC-62
[18] = tested on: M14
[19] = tested on: TK-10
[20] = tested on: SR

| SMILES | GI50 [1] | GI50 [2] | GI50 [3] | GI50 [4] | GI50 [5] | GI50 [6] | GI50 [7] | GI50 [8] | GI50 [9] | GI50 [10] | GI50 [11] | GI50 [12] | GI50 [13] | GI50 [14] | GI50 [15] | GI50 [16] | GI50 [17] | GI50 [18] | GI50 [19] | GI50 [20] |
| --- | --- | --- | --- | --- | --- | --- | --- | --- | --- | --- | --- | --- | --- | --- | --- | --- | --- | --- | --- | --- |
| Cc1nc2ccccc2c(=O)n1Nc1ccc(C(=O)O)cc1 | > 100 µM (inactive) | > 100 µM (inactive) | > 100 µM (inactive) | > 100 µM (inactive) | > 100 µM (inactive) | > 100 µM (inactive) | > 100 µM (inactive) | > 100 µM (inactive) | > 100 µM (inactive) | > 100 µM (inactive) | > 100 µM (inactive) | > 100 µM (inactive) | > 100 µM (inactive) | > 100 µM (inactive) | > 100 µM (inactive) | > 100 µM (inactive) | > 100 µM (inactive) | – | – | – |
| c1ccc(-c2nnc(-c3nsc4ccccc34)o2)cc1 | – | 41.4 µM (inactive) | > 100 µM (inactive) | > 100 µM (inactive) | > 100 µM (inactive) | 18.4 µM (inactive) | > 100 µM (inactive) | > 100 µM (inactive) | – | – | > 100 µM (inactive) | > 100 µM (inactive) | > 100 µM (inactive) | > 100 µM (inactive) | – | > 100 µM (inactive) | > 100 µM (inactive) | > 100 µM (inactive) | > 100 µM (inactive) | – |
| NC(C/C=C/P(=O)(O)O)C(=O)O (configuration not stated) | – | > 100 µM (inactive) | > 100 µM (inactive) | > 100 µM (inactive) | > 100 µM (inactive) | > 100 µM (inactive) | > 100 µM (inactive) | > 100 µM (inactive) | – | > 100 µM (inactive) | > 100 µM (inactive) | > 100 µM (inactive) | – | 58.1 µM (inactive) | > 100 µM (inactive) | > 100 µM (inactive) | > 100 µM (inactive) | > 100 µM (inactive) | > 100 µM (inactive) | > 100 µM (inactive) |
| CC(Cc1ccccc1)Nc1ncnc2c1ncn2C1OC(CO)CC1O (configuration not stated) | > 100 µM (inactive) | > 100 µM (inactive) | > 100 µM (inactive) | > 100 µM (inactive) | – | > 100 µM (inactive) | > 100 µM (inactive) | > 100 µM (inactive) | > 100 µM (inactive) | > 100 µM (inactive) | > 100 µM (inactive) | > 100 µM (inactive) | > 100 µM (inactive) | > 100 µM (inactive) | 3.71 µM (inactive) | > 100 µM (inactive) | > 100 µM (inactive) | > 100 µM (inactive) | > 100 µM (inactive) | – |
| CCOCNC(=O)N(COCC)COCC | > 100 µM (inactive) | > 100 µM (inactive) | > 100 µM (inactive) | > 100 µM (inactive) | > 100 µM (inactive) | – | > 100 µM (inactive) | > 100 µM (inactive) | > 100 µM (inactive) | > 100 µM (inactive) | 33 µM (inactive) | > 100 µM (inactive) | > 100 µM (inactive) | > 100 µM (inactive) | > 100 µM (inactive) | – | > 100 µM (inactive) | > 100 µM (inactive) | – | – |
| COc1ccc(-c2cc(O)c3ccc(C)nc3n2)cc1 | 65.6 µM (inactive) | > 100 µM (inactive) | > 100 µM (inactive) | – | – | 97.7 µM (inactive) | > 100 µM (inactive) | > 100 µM (inactive) | > 100 µM (inactive) | > 100 µM (inactive) | – | > 100 µM (inactive) | 55.7 µM (inactive) | > 100 µM (inactive) | > 100 µM (inactive) | – | 86.1 µM (inactive) | > 100 µM (inactive) | > 100 µM (inactive) | – |
| COc1cc(O)c2c(=O)cc(C3(O)C=CC(=O)C=C3)oc2c1 | 4.05 µM (inactive) | 1.36 µM (inactive) | 0.535 µM (active) | 0.29 µM (active) | < 0.01 µM (active) | – | < 0.01 µM (active) | 0.083 µM (active) | < 0.01 µM (active) | < 0.0361 µM (active) | – | 0.0448 µM (active) | – | 0.428 µM (active) | 2.37 µM (inactive) | < 0.0405 µM (active) | 0.378 µM (active) | 0.542 µM (active) | 0.0658 µM (active) | < 0.01 µM (active) |
| COC(=O)c1cccc(N[C@@H]2c3cc4c(cc3C(c3cc(OC)c(O)c(OC)c3)[C@H]3C(=O)OCC32)OCO4)c1 (some centres not stated) | 0.635 µM (active) | 4.03 µM (inactive) | 2.19 µM (inactive) | 0.682 µM (active) | 0.149 µM (active) | 1.06 µM (active) | 0.902 µM (active) | 2.37 µM (inactive) | 2.33 µM (inactive) | 1.4 µM (inactive) | 2.07 µM (inactive) | 1.73 µM (inactive) | 1.37 µM (inactive) | 1.4 µM (inactive) | 2.86 µM (inactive) | 1.05 µM (active) | 0.729 µM (active) | – | – | – |
